According to paper PMC6148290, “Endogenous metabolites of vitamin E limit inflammation by targeting 5-lipoxygenase” (Nature Communications, 2018):

What was measured:
[1] = molecular target: T1, human recombinant soluble epoxide hydrolase (sEH) (Homo sapiens, UniProt P34913); experiment: sEH activity; assay type: biochemical
T1 construct: made in house; host or cells: Sf9 insect cells (recombinant baculovirus)
T1 sequence (P34913 1-555): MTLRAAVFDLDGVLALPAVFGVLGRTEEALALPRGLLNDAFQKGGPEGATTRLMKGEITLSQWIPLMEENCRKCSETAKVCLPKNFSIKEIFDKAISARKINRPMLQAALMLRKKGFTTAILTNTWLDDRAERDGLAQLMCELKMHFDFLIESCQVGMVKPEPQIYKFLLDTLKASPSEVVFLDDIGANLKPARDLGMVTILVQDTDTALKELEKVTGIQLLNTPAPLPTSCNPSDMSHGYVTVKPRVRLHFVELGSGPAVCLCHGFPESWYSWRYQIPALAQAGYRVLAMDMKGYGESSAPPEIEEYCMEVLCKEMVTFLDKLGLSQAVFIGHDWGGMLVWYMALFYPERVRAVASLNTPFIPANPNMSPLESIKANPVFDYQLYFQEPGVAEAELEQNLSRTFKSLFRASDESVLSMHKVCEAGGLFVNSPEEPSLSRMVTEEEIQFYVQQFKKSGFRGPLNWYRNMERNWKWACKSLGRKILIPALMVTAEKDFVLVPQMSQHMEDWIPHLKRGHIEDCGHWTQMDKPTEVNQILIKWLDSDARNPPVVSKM
Protocol: To investigate the effect of LCMs on sEH activity, we purified the human recombinant enzyme from sEH expressing Sf9 insect cells by benzylthio-sepharose affinity chromatography. […] The purified enzyme (60 ng) was diluted in 25 mM Tris HCl, pH 7 plus 0.1 mg/ml BSA and pre-incubated with LCMs for 10 min at room temperature. The enzymatic reaction was started by addition of PHOME (50 µM, Cayman Chemicals), which was converted to the fluorescent 6-methoxy-naphtaldehyde.

intracellular Ca^2+ = experiment: Intracellular Ca2+ in fMLP-stimulated PMNL; assay type: cell-based, human
Protocol: PMNL (1 × 10^6) were incubated with Fura-2/AM (Thermo Fisher Scientific; 2 nmol) for 45 min at 37 °C, washed, resuspended in PBS pH 7.4 plus 1 mg/ml glucose and transferred to fluorescene 96-well microplates (Greiner). After pre-incubation with compounds for 10 min, 1 mM Ca^2+ was added, and cells were stimulated with fMLP (1 µM) for another 10 min. Intracellular Ca^2+ concentrations were determined using a thermally (37 °C) controlled NOVOstar fluorescence microplate reader [BMG Labtech, Ortenberg, Germany; emission at 510 nm, excitation at 340 nm (Ca^2+-bound Fura-2) and 380 nm (free Fura-2)][17]. The maximal fluorescence signal was recorded after lysis of […] with Triton X-100, and the minimal fluorescence was assessed by adding 20 mM EDTA to chelate Ca^2+. The difference in the signal ratio obtained with Triton X-100 and Triton X-100 plus 20 mM EDTA was set to 100% for each experiment.

[2] = LCM quantitation in plasma of healthy volunteers (UPLC-MS/MS); set-up: species or system human; conditions: endogenous; ten healthy volunteers
Protocol: The diversity of LCMs in vivo is poorly investigated and limited to the analysis of plasma[27] and liver. To quantify vitamin E metabolites in plasma and tissues, we developed a sensitive ultraperformance liquid chromatography ESI tandem mass spectrometry (UPLC-MS/MS)-based quantitation method. […] The detection response of α-T-13′-COOH (4a) was linear between 1 and 250 nM (Fig. 2a), with lower limits of detection between 0.5 and 4 nM for ω-carboxylates and 4 and 250 nM for ω-alcohols (Supplementary Table 3).
Human PMNL, monocytes, PBMC, and platelets were freshly isolated from leukocyte concentrates. The protocols for experiments with human blood and blood cells were approved by the ethical commission of the Friedrich-Schiller-University Jena. […]
LCMs were separated on an Acquity UPLC BEH C18 column (1.7 µm, 2.1 × 50 mm, Waters) at a flow rate of 0.8 ml/min at 45 °C: 0 to 4.5 min, gradient from 50% mobile phase A (acetonitrile/water, 10/90, 0.07% formic acid)/50% mobile phase B (acetonitrile, 0.07% formic acid) to 100% B; 4.5 to 5.5 min, isocratic at 100% B. Multiple reaction monitoring was used to detect LCMs in the negative ion mode. […] Collision energies and lower limits of quantitation are listed in Supplementary Table 3.

LTB4 formation = LTB4 formation in LPS/fMLP-stimulated human blood; assay type: cell-based; conditions: 100 nM
Protocol: LPS-activated monocytes were treated with A23187 (2.5 µM) and AA (20 µM) to induce lipid mediator biosynthesis as described for LO product formation. Human blood was pre-incubated with vehicle (DMSO) or α-T-13′-COOH (4a, 100 nM) for 10 min, primed with LPS (1 µg/ml) for 30 min and stimulated with N-formyl-methionyl-leucyl-phenylalanine (fMLP, Sigma-Aldrich; 1 µM) for 15 min at 37 °C.

**Q.** Which IC50 [1] does the source give for `Cc1c(C)c2c(c(C)c1O)CC[C@@](C)(CCCC(C)CCCC(C)CCCC(C)C(=O)O)O2` (stereo partly drawn) [4a, 13-((2R)-6-hydroxy-2,5,7,8-tetramethylchroman-2-yl)-2,6,10-trimethyltridecanoic acid] here?
**A.** > 10 µM

**Q.** And the “effect on intracellular Ca^2+” value (intracellular Ca^2+)?
**A.** neither affected

**Q.** What about the “α-T-13′-COOH (4a) concentration in human plasma” value [2] of the same compound?
**A.** 8 to 49 nM

**Q.** What about the “effect on LTB4 formation in activated human blood” value (LTB4 formation) of the same compound?
**A.** inhibited
